Assay results: patent EP4603105A1, “PHARMACEUTICAL COMPOSITION CONTAINING CYCLIC COMPOUND HAVING SELECTIVE KRAS INHIBITORY EFFECT AGAINST HRAS AND NRAS” (CHUGAI SEIYAKU KABUSHIKI KAISHA, priority 2022, dated 2024)

How the values were obtained:
HRAS wild-type protein = HRAS wild-type protein (Homo sapiens, UniProt P01112); test: Binding to HRAS by surface plasmon resonance (SPR), KD and KD ratio to KRAS
Method in brief: (§1)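 Compound binding is evaluated by SPR single-cycle kinetics, with concentrations added intermittently from low to high for 75 s each. Target surfaces carry GDP-loaded biotinylated Avi-RAS at about 100–300 RU, regenerated after each cycle; temperature 30°C. A 1:1 binding model gives KD.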

[1] = biological target: GDP-bound NRAS wild-type protein (Homo sapiens, UniProt P01111); test: Binding to NRAS by surface plasmon resonance (SPR), KD and KD ratio to KRAS
Sequence of GDP-bound NRAS wild-type protein (P01111 whole entry): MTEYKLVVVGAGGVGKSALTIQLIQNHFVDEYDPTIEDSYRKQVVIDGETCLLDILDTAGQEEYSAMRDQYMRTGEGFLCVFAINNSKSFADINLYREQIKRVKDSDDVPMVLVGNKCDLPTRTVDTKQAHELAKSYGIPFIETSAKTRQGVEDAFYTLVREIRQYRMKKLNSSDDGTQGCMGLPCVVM
Method in brief: as §1

[2] = tested on: human lung cancer strain NCI-H441; type: cell-based
Method in brief: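 Proliferation was scored by […] measured after the reagent was added to cultures kept at 37°C in 5% carbon dioxide.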

[3] = ratio of KD value for HRAS wild-type protein to KD value for KRAS (SPR)
[4] = ratio of KD value for GDP-bound NRAS wild-type protein to KD value for KRAS (SPR)
[5] = ratio of the KD value with respect to HRAS wild-type protein to the KD value with respect to KRAS
[6] = ratio of the KD value with respect to GDP-bound NRAS wild-type protein to the KD value with respect to KRAS

Sequence of HRAS wild-type protein (P01112 whole entry): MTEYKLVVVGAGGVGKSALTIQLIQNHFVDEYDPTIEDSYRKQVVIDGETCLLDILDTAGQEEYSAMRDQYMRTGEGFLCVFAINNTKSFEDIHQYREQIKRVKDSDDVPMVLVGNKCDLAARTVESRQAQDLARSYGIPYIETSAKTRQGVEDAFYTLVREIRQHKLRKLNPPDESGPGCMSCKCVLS

CCO[C@@H]1C[C@H]2C(=O)NC3(CCC3)C(=O)N(C)[C@@H](C3CCCC3)C(=O)N(C)[C@H](C(=O)N(C)CC)CC(=O)N(C)[C@@H](CC3CC3)C(=O)N[C@@H]([C@@H](C)CC)C(=O)N(C)CC(=O)N(C)[C@H]3C/C=C\CCN(C3=O)[C@@H](Cc3ccc(C)cc3)C(=O)N(C)CC(=O)N[C@@H](CCc3ccc(C(F)(F)F)c(OC)c3)C(=O)N2C1 [PP1879]
HRAS /KRAS (HRAS wild-type protein; [3]): B (a compound having 3 or more and less than 10 is denoted as B)
NRAS /KRAS [1, 4]: A (a compound having 10 or more and less than 20 is denoted as A)
IC50 [2]: 16.9 nM

CCO[C@@H]1C[C@H]2C(=O)NC3(CC(C)(C)C3)C(=O)N(C)[C@@H](C3CCCC3)C(=O)N(C)[C@H](C(=O)N(C)CC)CC(=O)N(C)[C@@H](CC)C(=O)N[C@@H]([C@@H](C)CC)C(=O)N(C)CC(=O)N(C)[C@H]3C/C=C\CCN(C3=O)[C@@H](Cc3ccc(C)cc3)C(=O)N(C)CC(=O)N[C@@H](CCc3ccc(C(F)(F)F)c(Cl)c3)C(=O)N2C1 [PP1880]
HRAS /KRAS (HRAS wild-type protein; [3]): B (a compound having 3 or more and less than 10 is denoted as B)
NRAS /KRAS [1, 4]: A (a compound having 10 or more and less than 20 is denoted as A)
IC50 [2]: 15.6 nM

CCO[C@@H]1C[C@H]2C(=O)NC3(CC(C)(C)C3)C(=O)N(C)[C@@H](C3CCCC3)C(=O)N(C)[C@H](C(=O)N(CC)CC)CC(=O)N(C)[C@@H](CC)C(=O)N[C@@H]([C@@H](C)CC)C(=O)N(C)CC(=O)N(C)[C@H]3C/C=C\CCN(C3=O)[C@@H](Cc3ccc(C)cc3)C(=O)N(C)CC(=O)N[C@@H](CCc3ccc(C(F)(F)F)c(OC)c3)C(=O)N2C1 [PP1881]
HRAS /KRAS (HRAS wild-type protein; [3]): A (a compound having 10 or more and less than 20 is denoted as A)
NRAS /KRAS [1, 4]: A (a compound having 10 or more and less than 20 is denoted as A)
IC50 [2]: 16.7 nM

CCO[C@@H]1C[C@H]2C(=O)NC3(CC(C)(C)C3)C(=O)N(C)[C@@H](C3CCCC3)C(=O)N(C)[C@H](C(=O)N(CC)CC)CC(=O)N(C)[C@@H](CC)C(=O)N[C@@H]([C@@H](C)CC)C(=O)N(C)CC(=O)N(C)[C@H]3C/C=C\CCN(C3=O)[C@@H](Cc3ccc(C)cc3)C(=O)N(C)CC(=O)N[C@@H](CCc3ccc(C(F)(F)F)c(Cl)c3)C(=O)N2C1 [PP1883]
HRAS /KRAS (HRAS wild-type protein; [3]): A (a compound having 10 or more and less than 20 is denoted as A)
NRAS /KRAS [1, 4]: A (a compound having 10 or more and less than 20 is denoted as A)
IC50 [2]: 24 nM

CC[C@H](C)[C@@H]1NC(=O)[C@H](CC(C)C)N(C)C(=O)C[C@@H](C(=O)N(CC)CC)N(C)C(=O)[C@H](C2CCCC2)N(C)C(=O)C2(CCC2)NC(=O)[C@@H]2C[C@H](C)CN2C(=O)[C@H](CCc2ccc(C(F)(F)F)c(OC)c2)NC(=O)CN(C)C(=O)[C@H](Cc2ccc(C)cc2)N2CC/C=C\C[C@@H](C2=O)N(C)C(=O)CN(C)C1=O [PP1885]
HRAS /KRAS (HRAS wild-type protein; [3]): A (a compound having 10 or more and less than 20 is denoted as A)
NRAS /KRAS [1, 4]: AA (a compound having 20 or more is denoted as AA)
IC50 [2]: 18.3 nM

CCO[C@@H]1C[C@H]2C(=O)NC3(CC(C)(C)C3)C(=O)N(C)[C@@H](C3CCCC3)C(=O)N(C)[C@H](C(=O)N(C)CC)CC(=O)N(C)[C@@H](CC)C(=O)N[C@@H]([C@@H](C)CC)C(=O)N(C)CC(=O)N(C)[C@H]3C/C=C\CCN(C3=O)[C@@H](Cc3ccc(C)cc3)C(=O)N(C)CC(=O)N[C@@H](CCc3cc(F)c(C(F)(F)F)c(F)c3)C(=O)N2C1 [PP1886]
HRAS /KRAS (HRAS wild-type protein; [3]): B (a compound having 3 or more and less than 10 is denoted as B)
NRAS /KRAS [1, 4]: A (a compound having 10 or more and less than 20 is denoted as A)
IC50 [2]: 1.9 nM

CCC[C@H]1C(=O)N[C@@H]([C@@H](C)CC)C(=O)N(C)CC(=O)N(C)[C@H]2C/C=C\CCN(C2=O)[C@@H](Cc2ccc(C)cc2)C(=O)N(C)CC(=O)N[C@@H](CCc2ccc(C(F)(F)F)c(OC)c2)C(=O)N2C[C@@H](C)C[C@H]2C(=O)NC2(CC(C)(C)C2)C(=O)N(C)[C@@H](C2CCCC2)C(=O)N(C)[C@H](C(=O)N(C)CC)CC(=O)N1C [PP1889]
HRAS /KRAS (HRAS wild-type protein; [3]): B (a compound having 3 or more and less than 10 is denoted as B)
NRAS /KRAS [1, 4]: A (a compound having 10 or more and less than 20 is denoted as A)
IC50 [2]: 12.5 nM

CCC[C@H]1C(=O)N[C@@H]([C@@H](C)CC)C(=O)N(C)CC(=O)N(C)[C@H]2C/C=C\CCN(C2=O)[C@@H](Cc2ccc(C)cc2)C(=O)N(C)CC(=O)N[C@@H](CCc2ccc(C(F)(F)F)c(OC)c2)C(=O)N2C[C@H](C)C[C@H]2C(=O)NC2(CC(C)(C)C2)C(=O)N(C)[C@@H](C2CCCC2)C(=O)N(C)[C@H](C(=O)N(C)CC)CC(=O)N1C [PP1891]
HRAS /KRAS (HRAS wild-type protein; [3]): A (a compound having 10 or more and less than 20 is denoted as A)
NRAS /KRAS [1, 4]: A (a compound having 10 or more and less than 20 is denoted as A)
IC50 [2]: 2.6 nM

CCC[C@H]1C(=O)N[C@@H]([C@@H](C)CC)C(=O)N(C)CC(=O)N(C)[C@H]2C/C=C\CCN(C2=O)[C@@H](Cc2ccc(C)cc2)C(=O)N(C)CC(=O)N[C@@H](CCc2ccc(C(F)(F)F)c(OC)c2)C(=O)N2C[C@H](OCC)C[C@H]2C(=O)NC2(CC(C)(C)C2)C(=O)N(C)[C@@H](C2CCCC2)C(=O)N(C)[C@H](C(=O)N(C)C)CC(=O)N1C [PP1892]
HRAS /KRAS (HRAS wild-type protein; [3]): B (a compound having 3 or more and less than 10 is denoted as B)
NRAS /KRAS [1, 4]: A (a compound having 10 or more and less than 20 is denoted as A)
IC50 [2]: 4.8 nM

CCC[C@H]1C(=O)N[C@@H]([C@@H](C)CC)C(=O)N(C)CC(=O)N(C)[C@H]2C/C=C\CCN(C2=O)[C@@H](Cc2ccc(C)cc2)C(=O)N(C)CC(=O)N[C@@H](CCc2ccc(C(F)(F)F)c(Cl)c2)C(=O)N2C[C@@H](C)C[C@H]2C(=O)NC2(CC(C)(C)C2)C(=O)N(C)[C@@H](C2CCCC2)C(=O)N(C)[C@H](C(=O)N(C)CC)CC(=O)N1C [PP1893]
HRAS /KRAS (HRAS wild-type protein; [3]): B (a compound having 3 or more and less than 10 is denoted as B)
NRAS /KRAS [1, 4]: A (a compound having 10 or more and less than 20 is denoted as A)
IC50 [2]: 18.5 nM

CCC[C@H]1C(=O)N[C@@H]([C@@H](C)CC)C(=O)N(C)CC(=O)N(C)[C@H]2C/C=C\CCN(C2=O)[C@@H](Cc2ccc(C)cc2)C(=O)N(C)CC(=O)N[C@@H](CCc2ccc(C(F)(F)F)c(Cl)c2)C(=O)N2C[C@H](OCC)C[C@H]2C(=O)NC2(CCC2)C(=O)N(C)[C@@H](C2CCCC2)C(=O)N(C)[C@H](C(=O)N(C)CC)CC(=O)N1C [PP1895]
HRAS /KRAS (HRAS wild-type protein; [3]): B (a compound having 3 or more and less than 10 is denoted as B)
NRAS /KRAS [1, 4]: A (a compound having 10 or more and less than 20 is denoted as A)
IC50 [2]: 15.6 nM

CCC[C@H]1C(=O)N[C@@H]([C@@H](C)CC)C(=O)N(C)CC(=O)N(C)[C@H]2C/C=C\CCN(C2=O)[C@@H](Cc2ccc(C)cc2)C(=O)N(C)CC(=O)N[C@@H](CCc2ccc(C(F)(F)F)c(Cl)c2)C(=O)N2C[C@H](OCC)C[C@H]2C(=O)NC2(CC(C)(C)C2)C(=O)N(C)[C@@H](C2CCCC2)C(=O)N(C)[C@H](C(=O)N(C)C)CC(=O)N1C [PP1896]
HRAS /KRAS (HRAS wild-type protein; [3]): B (a compound having 3 or more and less than 10 is denoted as B)
NRAS /KRAS [1, 4]: A (a compound having 10 or more and less than 20 is denoted as A)
IC50 [2]: 5.3 nM

CC[C@H](C)[C@@H]1NC(=O)[C@H](CC2CC2)N(C)C(=O)C[C@@H](C(=O)N(C)C)N(C)C(=O)[C@H](C2CCCC2)N(C)C(=O)C2(CC(C)(C)C2)NC(=O)[C@@H]2C[C@H](C)CN2C(=O)[C@H](CCc2ccc(C(F)(F)F)c(OC)c2)NC(=O)CN(C)C(=O)[C@H](Cc2ccc(C)cc2)N2CC/C=C\C[C@@H](C2=O)N(C)C(=O)CN(C)C1=O [PP1898]
HRAS /KRAS (HRAS wild-type protein; [5]): B (a compound having 3 or more and less than 10 is denoted as B)
NRAS /KRAS [1, 6]: B (a compound having 3 or more and less than 10 is denoted as B)
IC50 [2]: 6.3 nM

CC[C@H](C)[C@@H]1NC(=O)[C@H](CC(C)C)N(C)C(=O)C[C@@H](C(=O)N(C)CC)N(C)C(=O)[C@H](C2CCCC2)N(C)C(=O)C2(CCC2)NC(=O)[C@@H]2C[C@H](C)CN2C(=O)[C@H](CCc2ccc(C(F)(F)F)c(OC)c2)NC(=O)CN(C)C(=O)[C@H](Cc2ccc(C)cc2)N2CC/C=C\C[C@@H](C2=O)N(C)C(=O)CN(C)C1=O [PP1904]
HRAS /KRAS (HRAS wild-type protein; [5]): B (a compound having 3 or more and less than 10 is denoted as B)
NRAS /KRAS [1, 6]: A (a compound having 10 or more and less than 20 is denoted as A)
IC50 [2]: 18.3 nM

CC[C@H](C)[C@@H]1NC(=O)[C@H](CC(C)C)N(C)C(=O)C[C@@H](C(=O)N(C)CC)N(C)C(=O)[C@H](C2CCCC2)N(C)C(=O)C2(CC(C)(C)C2)NC(=O)[C@@H]2C[C@H](C)CN2C(=O)[C@H](CCc2ccc(C(F)(F)F)c(OC)c2)NC(=O)CN(C)C(=O)[C@H](Cc2ccc(C)cc2)N2CC/C=C\C[C@@H](C2=O)N(C)C(=O)CN(C)C1=O [PP1906]
HRAS /KRAS (HRAS wild-type protein; [5]): A (a compound having 10 or more and less than 20 is denoted as A)
NRAS /KRAS [1, 6]: A (a compound having 10 or more and less than 20 is denoted as A)
IC50 [2]: 10.8 nM

CC[C@H](C)[C@@H]1NC(=O)[C@H](CC(C)C)N(C)C(=O)C[C@@H](C(=O)N(C)CC)N(C)C(=O)[C@H](C2CCCC2)N(C)C(=O)C2(CCC2)NC(=O)[C@@H]2C[C@@H](C)CN2C(=O)[C@H](CCc2ccc(C(F)(F)F)c(OC)c2)NC(=O)CN(C)C(=O)[C@H](Cc2ccc(C)cc2)N2CC/C=C\C[C@@H](C2=O)N(C)C(=O)CN(C)C1=O [PP1907]
HRAS /KRAS (HRAS wild-type protein; [5]): A (a compound having 10 or more and less than 20 is denoted as A)
NRAS /KRAS [1, 6]: AA (a compound having 20 or more is denoted as AA)
IC50 [2]: 23.6 nM
